Data taken from article PMC11018627, “KdpD is a tandem serine histidine kinase that controls K^+ pump KdpFABC transcriptionally and post-translationally” (Nature Communications, 2024).

Columns and labels:
[1] = biological target: T1, DgKdpD (Deinococcus geothermalis, UniProt Q1J2K3); experiment: in vitro phosphorylation of E. coli KdpB, phosphoprotein gel stain; format: biochemical; settings: activator; 1 mM c-di-AMP, 5 mM ATP, E. coli KdpFABC (KdpB D307N) as protein substrate, room temperature, 30 min
T1 construct: gene Dgeo_2852; short KdpD/Usp domain version, full chain; expressed in E. coli TK2281 from pBXC3H; His-tag removed with 3C protease on column
T1 sequence (Q1J2K3 entry or part of it): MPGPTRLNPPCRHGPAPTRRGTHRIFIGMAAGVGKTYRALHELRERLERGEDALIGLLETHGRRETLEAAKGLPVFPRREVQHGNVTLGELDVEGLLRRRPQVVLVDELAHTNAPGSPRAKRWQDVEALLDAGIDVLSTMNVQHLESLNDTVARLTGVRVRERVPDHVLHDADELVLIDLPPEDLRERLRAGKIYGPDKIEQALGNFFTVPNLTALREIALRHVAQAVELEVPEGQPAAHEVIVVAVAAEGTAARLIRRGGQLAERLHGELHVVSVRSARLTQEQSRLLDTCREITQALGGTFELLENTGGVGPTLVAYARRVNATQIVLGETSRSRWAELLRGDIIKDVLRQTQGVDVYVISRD

[2] = biological target: T2, KdpFABC (Escherichia coli, UniProt P03960); settings: 2 mM ATP, 1 mM KCl, 37 °C; non-phosphorylated complex purified from E. coli TK2281
T2 construct: gene kdpB
T2 sequence (P03959 whole entry): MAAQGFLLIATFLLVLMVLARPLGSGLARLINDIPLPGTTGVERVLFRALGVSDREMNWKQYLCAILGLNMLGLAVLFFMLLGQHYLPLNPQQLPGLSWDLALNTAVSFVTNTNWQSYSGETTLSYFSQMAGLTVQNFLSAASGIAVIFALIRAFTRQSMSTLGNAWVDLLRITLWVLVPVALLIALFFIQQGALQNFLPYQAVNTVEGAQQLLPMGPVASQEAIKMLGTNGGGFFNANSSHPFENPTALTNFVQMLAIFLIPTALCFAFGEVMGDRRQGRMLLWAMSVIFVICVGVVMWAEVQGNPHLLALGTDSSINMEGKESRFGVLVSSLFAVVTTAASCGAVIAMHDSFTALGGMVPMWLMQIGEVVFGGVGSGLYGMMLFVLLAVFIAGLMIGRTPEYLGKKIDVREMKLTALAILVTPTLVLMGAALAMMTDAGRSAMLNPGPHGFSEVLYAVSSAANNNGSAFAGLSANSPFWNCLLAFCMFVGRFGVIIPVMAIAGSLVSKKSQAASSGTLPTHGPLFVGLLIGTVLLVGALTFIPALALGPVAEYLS
T2 sequence (P36937 whole entry, further chain): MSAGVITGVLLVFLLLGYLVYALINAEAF
T2 sequence (P03961 whole entry, further chain): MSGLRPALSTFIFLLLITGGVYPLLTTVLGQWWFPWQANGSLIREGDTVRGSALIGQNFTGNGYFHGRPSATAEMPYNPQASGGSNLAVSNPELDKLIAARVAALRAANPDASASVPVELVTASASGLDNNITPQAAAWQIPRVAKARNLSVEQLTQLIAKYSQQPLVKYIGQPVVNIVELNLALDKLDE
T2 sequence (P03960 whole entry): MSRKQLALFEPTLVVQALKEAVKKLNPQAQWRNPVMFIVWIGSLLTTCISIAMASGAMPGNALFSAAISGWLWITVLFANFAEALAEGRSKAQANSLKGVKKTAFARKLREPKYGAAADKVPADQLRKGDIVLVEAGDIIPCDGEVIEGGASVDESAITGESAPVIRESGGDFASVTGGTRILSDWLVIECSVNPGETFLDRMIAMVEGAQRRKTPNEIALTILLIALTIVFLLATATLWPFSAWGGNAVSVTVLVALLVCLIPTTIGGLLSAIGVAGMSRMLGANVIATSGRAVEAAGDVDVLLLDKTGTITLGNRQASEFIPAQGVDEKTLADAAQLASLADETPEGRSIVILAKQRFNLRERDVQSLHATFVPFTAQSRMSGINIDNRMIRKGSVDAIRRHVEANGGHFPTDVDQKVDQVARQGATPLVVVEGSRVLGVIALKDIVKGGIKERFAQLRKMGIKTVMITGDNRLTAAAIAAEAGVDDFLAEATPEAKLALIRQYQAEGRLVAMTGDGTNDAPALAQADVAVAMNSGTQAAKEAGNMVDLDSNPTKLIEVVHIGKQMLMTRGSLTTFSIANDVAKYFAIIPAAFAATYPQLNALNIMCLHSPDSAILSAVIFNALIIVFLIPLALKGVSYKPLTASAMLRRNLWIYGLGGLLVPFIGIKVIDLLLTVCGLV

[3] = biological target: T3, KdpDNTD (Escherichia coli, UniProt P21865); experiment: in vitro phosphorylation of KdpB, phosphoprotein gel stain; format: biochemical; settings: phosphate donor of serine kinase; 5 mM ATP, 400 mM KCl, room temperature, 30 min, KdpFABC (KdpB D307N) as protein substrate; no ATPase activity alone
T3 construct: gene kdpD

[4] = biological target: T4, EcKdpD (Escherichia coli, UniProt P21865); experiment: as above; format: biochemical; settings: phosphate donor of serine kinase; 5 mM ATP, 400 mM KCl, room temperature, 30 min, KdpFABC (KdpB D307N) as protein substrate
T4 construct: gene kdpD; full-length, from pBXC3H (His-tag), produced in E. coli TK2281, purified in DDM or SMALPs
T4 sequence (P21865 1-894): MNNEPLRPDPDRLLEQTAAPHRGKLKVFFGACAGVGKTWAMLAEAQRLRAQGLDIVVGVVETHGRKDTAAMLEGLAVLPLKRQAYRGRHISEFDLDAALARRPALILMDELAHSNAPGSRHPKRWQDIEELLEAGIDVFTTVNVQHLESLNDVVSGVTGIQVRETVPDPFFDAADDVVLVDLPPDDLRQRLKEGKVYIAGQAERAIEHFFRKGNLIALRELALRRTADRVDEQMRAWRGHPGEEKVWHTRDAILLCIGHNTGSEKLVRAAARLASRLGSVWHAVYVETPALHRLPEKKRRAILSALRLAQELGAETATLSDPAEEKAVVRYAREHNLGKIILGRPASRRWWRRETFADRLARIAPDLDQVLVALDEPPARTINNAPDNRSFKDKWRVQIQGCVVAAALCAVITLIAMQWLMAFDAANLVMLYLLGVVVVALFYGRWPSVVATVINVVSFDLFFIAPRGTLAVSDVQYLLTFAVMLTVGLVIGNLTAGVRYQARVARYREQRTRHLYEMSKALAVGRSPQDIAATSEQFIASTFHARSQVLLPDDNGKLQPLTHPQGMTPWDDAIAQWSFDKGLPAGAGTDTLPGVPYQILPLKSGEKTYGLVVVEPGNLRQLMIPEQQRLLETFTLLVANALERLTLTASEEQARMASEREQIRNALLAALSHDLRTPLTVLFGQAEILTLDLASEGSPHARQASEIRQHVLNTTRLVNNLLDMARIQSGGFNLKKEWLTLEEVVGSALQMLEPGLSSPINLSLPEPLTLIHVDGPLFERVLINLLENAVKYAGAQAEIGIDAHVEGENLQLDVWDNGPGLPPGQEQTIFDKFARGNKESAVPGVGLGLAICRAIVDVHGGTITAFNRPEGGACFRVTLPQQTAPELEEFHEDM

[5] = biological target: T1, DgKdpD; experiment: as above; format: biochemical; settings: phosphate donor of serine kinase; 5 mM ATP, 1 mM c-di-AMP, room temperature, 30 min, E. coli KdpFABC (KdpB D307N) as protein substrate

| in vitro phosphorylation of KdpB, phosphoprotein gel stain [5] | SMILES | stimulation of ASK activity at 1 mM [1] | malachite green ATPase assay [2] | in vitro phosphorylation of KdpB, phosphoprotein gel stain [3] | in vitro phosphorylation of KdpB, phosphoprotein gel stain [4] |
| --- | --- | --- | --- | --- | --- |
| – | Nc1ncnc2c1ncn2[C@@H]1O[C@@H]2COP(=O)(O)O[C@H]3[C@@H](O)[C@H](n4cnc5c(N)ncnc54)O[C@@H]3COP(=O)(O)O[C@H]2[C@H]1O [c-di-AMP] | phosphorylation of E. coli KdpB by DgKdpD was stimulated in the presence of c-di-AMP | – | – | – |
| DgKdpD can phosphorylate E. coli KdpB | Nc1ncnc2c1ncn2[C@@H]1O[C@H](COP(=O)(O)OP(=O)(O)OP(=O)(O)O)[C@@H](O)[C@H]1O [ATP] | – | KdpFABC produced under these conditions showed a high ATPase activity | This truncated construct remained able to phosphorylate KdpB | Upon incubation with full-length KdpD, the phosphorylation was fully restored |
